Laboratory results published in article PMC11062899, “De novo development of small cyclic peptides that are orally bioavailable” (Nature Chemical Biology, 2023).
Several values for one entry are separate records, joined by “and”; a condition that tells them apart may be missing. Equal entries are not always repeated. Where two headings read alike, the source gives them in different places.

Assays:
[1] = Passive artificial membrane permeability (PAMPA); conditions: for PAMPA permeability: % permeability: acceptor concentration relative to equilibrium;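 for PAMPA permeability: % permeability: acceptor concentration relative to equilibrium after 12–18 h at 50 µM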
[2] = Metabolic stability in rat liver microsomes (RLMs); conditions: for microsomal CLint at 10 μM / half-life at 10 μM: rat
human α-thrombin = human α-thrombin (Homo sapiens, UniProt P00734); assay: Protease inhibition, Ki for human α-thrombin (fluorogenic substrate Z-Gly-Gly-Arg-AMC); assay type: biochemical; conditions: for Human alpha thrombin inhibition, slope normalized to DMSO: replicates R1-R3
Outline: (§1)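 Ki values come from Cheng–Prusoff correction of IC50, itself fitted by four-parameter logistic regression of activity versus a no-peptide control. Assays used 2 nM human or 3 nM rat thrombin, 50 μM Z-Gly-Gly-Arg-AMC, 30 min kinetic fluorescence at 25 °C.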

rat α-thrombin = target: T1, rat α-thrombin (Rattus norvegicus, UniProt P18292); assay: Protease inhibition, Ki for rat α-thrombin (fluorogenic substrate Z-Gly-Gly-Arg-AMC); assay type: biochemical; conditions: for Rat alpha thrombin inhibition, slope normalized to DMSO: replicates R1-R3
T1 construct: rat α-thrombin (Molecular Innovations) were used at final concentrations of 2 nM and 3 nM; purchased Molecular Innovations
Outline: as §1

[3] = rat liver microsomes, individual replicates R1-R3, incubation volume 400 ul, protein 0.5 mg/ml
[4] = peptide concentration 1.00E+02 uM
[5] = peptide concentration 1.19E-05 uM
[6] = peptide concentration 1.22E-02 uM
[7] = peptide concentration 1.25E+01 uM
[8] = peptide concentration 1.53E-03 uM
[9] = peptide concentration 1.56E+00 uM
[10] = peptide concentration 1.91E-04 uM
[11] = peptide concentration 1.95E-01 uM
[12] = peptide concentration 2.38E-05 uM
[13] = peptide concentration 2.44E-02 uM
[14] = peptide concentration 2.50E+01 uM
[15] = peptide concentration 3.05E-03 uM
[16] = peptide concentration 3.12E+00 uM
[17] = peptide concentration 3.81E-04 uM
[18] = peptide concentration 3.91E-01 uM
[19] = peptide concentration 4.77E-05 uM
[20] = peptide concentration 4.88E-02 uM
[21] = peptide concentration 5.00E+01 uM
[22] = peptide concentration 6.10E-03 uM
[23] = peptide concentration 6.25E+00 uM
[24] = peptide concentration 7.63E-04 uM
[25] = peptide concentration 7.81E-01 uM
[26] = peptide concentration 9.54E-05 uM
[27] = peptide concentration 9.77E-02 uM

CC(=O)CC(c1ccccc1)c1c(O)c2ccccc2oc1=O (stereo not drawn) [Warfarin, warfarin, reference compound]
PAMPA permeability: % permeability ([1]; 50 μM, 12–18 h): 50 ± 5% | Papp at 50 μM ([1]; PAMPA, pH 7.4, PAMPA permeability: logPapp, 50 μM, 12–18 h): 4.57 ×10⁻⁶ cm/s | Papp at 50 μM ([1]; PAMPA, pH 7.4, apparent permeability logPapp (PAMPA), 50 μM, pH 7.4, 12–18 h): 5.01 ×10⁻⁶ cm/s | Permeability% Average ([1]; PAMPA, average of R1-R3): 50.0% | Permeability% R1 ([1]; PAMPA, replicate R1, TIC of top well sample relative to sample at theoretical equilibrium): 48.28% | Permeability% R3 ([1]; PAMPA, replicate R3, TIC of top well sample relative to sample at theoretical equilibrium): 55.67% | CL (ul/min/mg protein) R1 ([2]; RLM CL, replicate R1): 3.761 ul/min/mg protein | RLM CL [2, 3]: 2.64 ul/min/mg protein | microsomal CLint at 10 μM ([2]; rat liver microsomes, pH 7.4): 2 µL/min/mg

C[C@]12CC[C@H]3[C@@H](CCC4=CC(=O)CC[C@@]43C)[C@@H]1CC[C@@H]2O [Testosterone, reference compound]
PAMPA permeability: % permeability ([1]; 50 μM, 12–18 h): 88.2 ± 1.1% | TIC value at 0 min ([2]; rat liver microsomes, 0 min incubation, LCMS TIC, individual replicates R1-R3, protein 0.5 mg/ml, Ox (+16)/(+32), deMe (-14)/(-28) = mass adducts (metabolites)): 365657 (2×) and 448878 | TIC value at 5 min ([2]; rat liver microsomes, 5 min incubation, LCMS TIC, individual replicates R1-R3, protein 0.5 mg/ml): 76968 and 89225 and 92782 | TIC value at 15 min ([2]; rat liver microsomes, 15 min incubation, LCMS TIC, individual replicates R1-R3, protein 0.5 mg/ml): 0 | TIC value at 30 min ([2]; rat liver microsomes, 30 min incubation, LCMS TIC, individual replicates R1-R3, protein 0.5 mg/ml): 0 | TIC value at 60 min ([2]; rat liver microsomes, 60 min incubation, LCMS TIC, individual replicates R1-R3, protein 0.5 mg/ml): 0 | Half Life ([2]; rat liver microsomes, individual replicates R1-R3): 2.29 min and 2.19 min | RLM CL [2, 3]: 606.56 ul/min/mg protein and 632.01 ul/min/mg protein | half-life at 10 μM ([2]; microsomes, pH 7.4, Half Life Mean, rat liver microsomes, mean of R1-R3): 2.23 min | half-life at 10 μM ([2]; microsomes, pH 7.4, Half Life, rat liver microsomes, individual replicates R1-R3): 2.21 min | half-life at 10 μM ([2]; microsomes, pH 7.4, Metabolic stability: Half life T1/2 (min), RLMs, mean and SD, three measurements): 2.2 ± 0.1 min | microsomal CLint at 10 μM ([2]; microsomes, pH 7.4, Metabolic stability: RLM CL (ul/min/mg), RLMs, mean and SD, three measurements): 620 ± 10 µL/min/mg | microsomal CLint at 10 μM ([2]; microsomes, pH 7.4, RLM CL Mean, rat liver microsomes, mean of R1-R3): 622 µL/min/mg | microsomal CLint at 10 μM ([2]; microsomes, pH 7.4, RLM CL, rat liver microsomes, individual replicates R1-R3, incubation volume 400 ul, protein 0.5 mg/ml): 626 µL/min/mg

O=C1C[C@H]2CCCN2C(=O)[C@H](Cc2ccccc2)NC(=O)[C@@H](NC(=O)c2ccc(Cl)s2)CCC=CCCN1 [compound 39]
Ki (human α-thrombin; average of R1-R3, read-out: Human alpha thrombin inhibition, Ki Average): 4.24 µM | Human alpha thrombin inhibition, slope normalized to DMSO (human α-thrombin; [4]): 7.2 and 18.3 and 14.2 | Human alpha thrombin inhibition, slope normalized to DMSO (human α-thrombin; [5]): 106.2 and 105.2 and 96.5 | Human alpha thrombin inhibition, slope normalized to DMSO (human α-thrombin; [6]): 97.4 and 143.9 and 87.6 | Human alpha thrombin inhibition, slope normalized to DMSO (human α-thrombin; [7]): 39.9 and 42.6 and 31.3 | Human alpha thrombin inhibition, slope normalized to DMSO (human α-thrombin; [8]): 107.6 and 85.1 and 100.8 | Human alpha thrombin inhibition, slope normalized to DMSO (human α-thrombin; [9]): 63.5 and 67.4 and 86.8 | Human alpha thrombin inhibition, slope normalized to DMSO (human α-thrombin; [10]): 94.4 and 101.9 and 82.4 | Human alpha thrombin inhibition, slope normalized to DMSO (human α-thrombin; [11]): 80.8 and 88.6 and 87.2 | Human alpha thrombin inhibition, slope normalized to DMSO (human α-thrombin; [12]): 104.6 and 100.1 and 103.6 | Human alpha thrombin inhibition, slope normalized to DMSO (human α-thrombin; [13]): 87.3 and 61.5 and 110.7 | Human alpha thrombin inhibition, slope normalized to DMSO (human α-thrombin; [14]): 18.7 and 30.4 and 26.6 | Human alpha thrombin inhibition, slope normalized to DMSO (human α-thrombin; [15]): 107.4 and 96.1 and 108.0 | Human alpha thrombin inhibition, slope normalized to DMSO (human α-thrombin; [16]): 66.3 and 72.5 and 68.3 | Human alpha thrombin inhibition, slope normalized to DMSO (human α-thrombin; [17]): 108.2 and 71.6 and 89.8 | Human alpha thrombin inhibition, slope normalized to DMSO (human α-thrombin; [18]): 98.6 and 87.2 and 97.0 | Human alpha thrombin inhibition, slope normalized to DMSO (human α-thrombin; [19]): 102.6 and 101.4 and 90.5 | Human alpha thrombin inhibition, slope normalized to DMSO (human α-thrombin; [20]): 86.2 and 70.0 and 72.9 | Human alpha thrombin inhibition, slope normalized to DMSO (human α-thrombin; [21]): 22.0 and 20.2 and 22.5 | Human alpha thrombin inhibition, slope normalized to DMSO (human α-thrombin; [22]): 107.1 and 94.4 and 65.9 | Human alpha thrombin inhibition, slope normalized to DMSO (human α-thrombin; [23]): 53.3 and 30.4 and 58.6 | Human alpha thrombin inhibition, slope normalized to DMSO (human α-thrombin; [24]): 101.4 and 104.3 and 107.6 | Human alpha thrombin inhibition, slope normalized to DMSO (human α-thrombin; [25]): 93.7 and 88.2 and 91.3 | Human alpha thrombin inhibition, slope normalized to DMSO (human α-thrombin; [26]): 107.7 and 104.4 and 105.3 | Human alpha thrombin inhibition, slope normalized to DMSO (human α-thrombin; [27]): 100.1 and 100.4 and 85.5 | IC50 (human α-thrombin; single replicates R1-R3, read-out: Human alpha thrombin inhibition, IC50): 6.06 µM and 4.33 µM and 6.11 µM | Ki (human α-thrombin; single replicates R1-R3, read-out: Human alpha thrombin inhibition, Ki): 4.67 µM (2×) and 3.34 µM (2×) and 4.71 µM (2×) | Ki (rat α-thrombin; average of R1-R3, read-out: Rat alpha thrombin inhibition, Ki Average): 1.19 µM | Rat alpha thrombin inhibition, slope normalized to DMSO (rat α-thrombin; [4]): 8.6 and 7.4 and 11.4 | Rat alpha thrombin inhibition, slope normalized to DMSO (rat α-thrombin; [5]): 107.5 and 103.5 and 101.6 | Rat alpha thrombin inhibition, slope normalized to DMSO (rat α-thrombin; [6]): 107.3 and 99.3 and 79.0 | Rat alpha thrombin inhibition, slope normalized to DMSO (rat α-thrombin; [7]): 23.0 and 17.3 and 19.0 | Rat alpha thrombin inhibition, slope normalized to DMSO (rat α-thrombin; [8]): 108.1 and 101.8 and 103.2 | Rat alpha thrombin inhibition, slope normalized to DMSO (rat α-thrombin; [9]): 38.0 and 68.3 and 64.4 | Rat alpha thrombin inhibition, slope normalized to DMSO (rat α-thrombin; [10]): 111.1 and 96.6 and 97.0 | Rat alpha thrombin inhibition, slope normalized to DMSO (rat α-thrombin; [11]): 80.3 and 102.2 and 95.7 | Rat alpha thrombin inhibition, slope normalized to DMSO (rat α-thrombin; [12]): 106.4 and 99.5 and 91.3 | Rat alpha thrombin inhibition, slope normalized to DMSO (rat α-thrombin; [13]): 104.4 and 97.3 and 93.2 | Rat alpha thrombin inhibition, slope normalized to DMSO (rat α-thrombin; [14]): 14.0 and 11.2 and 8.1 | Rat alpha thrombin inhibition, slope normalized to DMSO (rat α-thrombin; [15]): 71.4 and 100.8 and 98.3 | Rat alpha thrombin inhibition, slope normalized to DMSO (rat α-thrombin; [16]): 53.4 and 47.3 and 48.9 | Rat alpha thrombin inhibition, slope normalized to DMSO (rat α-thrombin; [17]): 103.9 and 95.9 and 106.5 | Rat alpha thrombin inhibition, slope normalized to DMSO (rat α-thrombin; [18]): 72.4 and 80.6 and 86.0 | Rat alpha thrombin inhibition, slope normalized to DMSO (rat α-thrombin; [19]): 110.4 and 101.0 and 101.1 | Rat alpha thrombin inhibition, slope normalized to DMSO (rat α-thrombin; [20]): 95.5 and 75.4 and 93.2 | Rat alpha thrombin inhibition, slope normalized to DMSO (rat α-thrombin; [21]): 9.4 and 9.6 and 8.3 | Rat alpha thrombin inhibition, slope normalized to DMSO (rat α-thrombin; [22]): 86.0 and 97.7 and 122.2 | Rat alpha thrombin inhibition, slope normalized to DMSO (rat α-thrombin; [23]): 35.0 and 30.8 and 29.6 | Rat alpha thrombin inhibition, slope normalized to DMSO (rat α-thrombin; [24]): 106.2 and 91.0 and 101.5 | Rat alpha thrombin inhibition, slope normalized to DMSO (rat α-thrombin; [25]): 51.1 and 75.3 and 70.4 | Rat alpha thrombin inhibition, slope normalized to DMSO (rat α-thrombin; [26]): 108.0 and 102.0 and 103.8 | Rat alpha thrombin inhibition, slope normalized to DMSO (rat α-thrombin; [27]): 101.3 and 96.8 and 84.0 | IC50 (rat α-thrombin; single replicates R1-R3, read-out: Rat alpha thrombin inhibition, IC50): 1.34 µM and 2.67 µM and 2.44 µM | Ki (rat α-thrombin; single replicates R1-R3, read-out: Rat alpha thrombin inhibition, Ki): 741 nM (2×) and 1.48 µM (2×) and 1.35 µM (2×) | PAMPA permeability: % permeability ([1]; 50 μM, 12–18 h): 70 ± 4% | Permeability% (single replicates R1–R3) ([1]; 50 μM, 13 h (Fig. 5d)): 73.98% and 66.95% and 68.74% | Permeability% Average ([1]; 50 μM, 13 h (Fig. 5d)): 69.9% | Papp at 50 μM ([1]; PAMPA, pH 7.4): 11.5 ×10⁻⁶ cm/s
